According to publication PMC12246139 (Scientific Reports, 2025):
“And” between values parts separate entries of the source, which are not always exact repeats. Equal values may be shown once. Read-outs that look alike come from different tables or passages of the source.

What was measured:
KRAS(WT) [1] = biological target: T1, KRAS(WT) (Homo sapiens, UniProt P01116); experiment: biochemical; conditions: 10 nM KRAS(WT), 5 nM SOScat, 15 min preincubation; read-out: Nucleotide exchange IC50
Description: Our results imply that both inhibitors are highly dependent on their covalent interaction to G12C for efficient and potent RAS inhibition.
(§1) Nucleotide exchange assays using the QRET principle[63]–[65],[68] were performed in assay buffer containing 20 mM HEPES (pH 7.5) 1 mM MgCl2, 10 mM NaCl, 0.01% (v/v) Triton X-100. […] Thereafter, 6 μL of detection solution (3.5 μM MT2 and 10 nM Eu^3+-GTP) was added and reaction was initiated with 5 nM SOS^cat added in 3 μL volume. TRL-signals were monitored using Tecan Spark 20 M from Tecan Life Sciences (Männedorf, Switzerland) by using 340 and 620 nm excitation and emission wavelengths and 800 and 400 μs delay and decay time, respectively. All concentrations are informed in a final 15 μL reaction volume in white 384-well low volume plates (Corning, USA). IC50 values were obtained using standard sigmoidal fitting functions from Origin 2016 software (Origin Lab, Northampton, MA).
with 10 nM KRAS(WT) and 5 nM SOScat, utilizing Eu3+-GTP (10 nM) TRL-signal protection upon
KRAS binding according to QRET principle.
(§2) (1 picture or pasted object on this page, not shown here)

HRAS(G12C) = HRAS(G12C) (Homo sapiens, UniProt P01112, G12C); experiment: biochemical; conditions: 10 nM HRAS(G12C), 5 nM SOScat, 15 min preincubation; read-out: Nucleotide exchange IC50
Sequence of HRAS(G12C) (P01112 1-169 G12C): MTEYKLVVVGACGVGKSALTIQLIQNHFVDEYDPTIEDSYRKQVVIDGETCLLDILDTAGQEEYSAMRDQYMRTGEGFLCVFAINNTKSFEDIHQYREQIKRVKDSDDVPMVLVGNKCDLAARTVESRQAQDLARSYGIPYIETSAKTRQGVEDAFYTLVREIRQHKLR
Description: (§3) Nucleotide exchange inhibition was monitored in an assay with 10 nM KRAS and 5 nM SOS^cat, utilizing Eu^3+-GTP TRL-signal protection upon KRAS binding according to QRET principle. […] (d) Overview of the assay results presented in (a–c) and Figs. S17, S19–S20.
(§4) SII-P inhibitor activities can differ among RAS isoforms (KRAS/HRAS/NRAS). These isoforms differ only in position 95 in the SII-P (Fig. S18).
as §1

NRAS(G12C) = NRAS(G12C) (Homo sapiens, UniProt P01111, G12C); experiment: biochemical; conditions: 10 nM NRAS(G12C), 5 nM SOScat, 15 min preincubation; read-out: Nucleotide exchange IC50
Sequence of NRAS(G12C) (P01111 1-169 G12C): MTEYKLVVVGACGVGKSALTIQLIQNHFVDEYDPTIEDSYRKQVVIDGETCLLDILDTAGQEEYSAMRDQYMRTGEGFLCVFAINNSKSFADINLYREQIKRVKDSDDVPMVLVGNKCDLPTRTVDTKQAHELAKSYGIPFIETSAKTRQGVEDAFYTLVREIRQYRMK
Description: as §3, §4, §1

KRAS(G12C/H95L) [2] = biological target: T2, KRAS(G12C/H95L) (Homo sapiens, UniProt P01116, G12C/H95L); experiment: biochemical; conditions: 10 nM KRAS(G12C/H95L), 5 nM SOScat, 15 min preincubation; read-out: Nucleotide exchange IC50
Description: (§5) First, we performed a traditional nucleotide exchange assay using a single-label quenching resonance energy transfer (QRET) principle[63]–[65] and non-labeled full-length KRAS(G12C), (G12C/H95L), and (G12C/Y96D). The selection of the two double mutants was based on the observed interactions in the MD simulations (Figs. 2, 3), and the fact that acquired resistance with SII-P inhibitors is associated with these mutations, as clinically observed for sotorasib and adagrasib[66]–[68].
as §3, §1

KRAS(G12C/Y96D) [3] = biological target: T3, KRAS(G12C/Y96D) (Homo sapiens, UniProt P01116, G12C/Y96D); experiment: biochemical; conditions: 10 nM KRAS(G12C/Y96D), 5 nM SOScat, 15 min preincubation; read-out: Nucleotide exchange IC50
Description: as §5, §3, §1

KRAS(G12C) [4] = biological target: T4, KRAS(G12C) (Homo sapiens, UniProt P01116, G12C); experiment: FRET-Probe thermal stability assay; type: binding
Description: (§6) In these assays, no external protein (SOS^cat) is used and only KRAS and inhibitors are present. First, we conducted a chemical stability assay by utilizing the FRET-Probe technique. In this system, time dependent KRAS (20 nM) denaturation is monitored in 1 M urea solution after KRAS preincubation with varying inhibitor concentration. […] In this assay, we observed an exceptionally high stability increase with both inhibitors (Fig. 5d; Fig. S17).
(§7) FRET-Probe thermal stability assays[69] were conducted in triplicates in an assay buffer containing 10 mM HEPES (pH 7.5), 10 mM NaCl, 0.5 mM MgCl2, and 0.01% (v/v) Brij-30. Assay was also performed in an assay buffer without MgCl2. […] Thereafter, 8 μL of the 1 × FRET-Probe was added, and signals were monitored using step-by-step protocol by heating from 34–96 °C using 2 °C steps and heating the sample 1.5 min at each step prior measurement using 340 and 665 nm excitation and emission wavelengths and 50 and 200 μs delay and decay time, respectively. Thermal heating was performed with a PTC-100 Programmable Thermal Controller (MJ Research, Inc., Watertown, MA). All concentrations are informed in a final 20 μL reaction volume in white 96-well PCR-plate (BioRad, USA). Tm values were obtained using standard sigmoidal fitting functions from Origin 2016 software. […]
heating with the FRET-Probe. KRAS(G12C) was preincubated 15 min prior the thermal ramping, in […]
which the TR-FRET signals from the triplicate reactions were monitored for every 2 °C, up to 96 °C.
Normalized thermal curves with or without MgCl2 (0.2 mM) are shown in A and C, and the same data […]
is presented as TR-FRET signals in B and D, respectively.
as §2

KRAS(WT) [5] = biological target: T1, KRAS(WT); experiment: FRET-Probe thermal stability assay; type: binding; parameters: full-length KRAS(G12C), KRAS(G12C/H95L), KRAS(G12C/Y96D) and KRAS(WT); host or cells: E. coli
Description: as §7
TR-FRET signals from the triplicate reactions were monitored for every 2 °C, up to 96 °C. Normalized thermal curves with or without MgCl2 (0.2 mM) are shown in A and C, and the same data is presented as TR-FRET signals in B and D, respectively.
as §2

KRAS(G12C/H95L) [6] = biological target: T2, KRAS(G12C/H95L); experiment: biochemical; type: binding; conditions: 20 nM KRAS(G12C/H95L), 1 M urea, 120 min at room temperature; read-out: Chemical stability IC50
Description: as §3, §6
(§8) FRET-Probe chemical stability assays[69] were performed in triplicates in an assay buffer containing 10 mM HEPES (pH 7.5), 10 mM NaCl, and 0.01% (v/v) Brij-30 (with or without 0.2 mM MgCl2) and destabilizing detection buffer with 10 mM HEPES (pH 7.5), 1 M urea, and 0.01% (v/v) Brij-30. […] Thereafter, 16 μL of the 1 × FRET-Probe was added in destabilizing detection buffer and TR-FRET signal was monitored multiple times during 120 min incubation (parameters as in thermal stability assay). All concentrations are informed in a final 20 μL reaction volume in white 384-well low volume plates (Corning, USA). IC50 values were obtained by blotting the signals obtained with different inhibitor concentrations at the selected time point against the inhibitor concentration and using standard sigmoidal fitting functions from Origin 2016 software.

KRAS(G12C/Y96D) [7] = biological target: T3, KRAS(G12C/Y96D); experiment: biochemical; type: binding; conditions: 20 nM KRAS(G12C/Y96D), 1 M urea, 120 min at room temperature; read-out: Chemical stability IC50
Description: as §3, §6, §8

KRAS(G12C) [8] = biological target: T4, KRAS(G12C); experiment: biochemical; type: binding; conditions: 20 nM KRAS(G12C), 1 M urea, 120 min at room temperature; read-out: Chemical stability IC50
Description: as §3, §6, §8

KRAS(G12C) [9] = biological target: T4, KRAS(G12C); experiment: biochemical; conditions: 10 nM KRAS(G12C), 5 nM SOScat, 15 min preincubation; read-out: Nucleotide exchange IC50

ΔTm at 0.05 µM (KRAS(G12C) [4]; 20 nM KRAS(G12C), 50 nM inhibitor, first value (footnote c), one of the with / without Mg2+ conditions, read-out: Thermal stability ΔTm) | ΔTm at 0.05 µM (KRAS(G12C) [4]; 20 nM KRAS(G12C), 50 nM inhibitor, second value (footnote d), the other of the with / without Mg2+ conditions, read-out: Thermal stability ΔTm) | ΔTm at 10 µM (KRAS(WT) [5]; 20 nM KRAS(WT), 10,000 nM inhibitor, first value (footnote f), one of the with / without Mg2+ conditions, read-out: Thermal stability ΔTm) | ΔTm at 10 µM (KRAS(WT) [5]; 20 nM KRAS(WT), 10,000 nM inhibitor, second value (footnote g), the other of the with / without Mg2+ conditions, read-out: Thermal stability ΔTm) | SMILES | IC50 (KRAS(WT) [1]) | IC50 (HRAS(G12C)) | IC50 (NRAS(G12C)) | IC50 (KRAS(G12C/H95L) [2]) | IC50 (KRAS(G12C/Y96D) [3]) | IC50 (KRAS(G12C/H95L) [6]) | IC50 (KRAS(G12C/Y96D) [7]) | IC50 (KRAS(G12C) [8]) | IC50 (KRAS(G12C) [9]) | ΔTm at 0.05 µM (KRAS(G12C) [4]; read-out: Thermal stability ΔTm, 20 nM KRAS(G12C), 50 nM inhibitor, first value (footnote c), one of the with / without Mg2+ conditions) | ΔTm at 0.05 µM (KRAS(G12C) [4]; read-out: Thermal stability ΔTm, 20 nM KRAS(G12C), 50 nM inhibitor, second value (footnote d), the other of the with / without Mg2+ conditions) | ΔTm at 10 µM (KRAS(WT) [5]; read-out: Thermal stability ΔTm, 20 nM KRAS(WT), 10,000 nM inhibitor, first value (footnote f), one of the with / without Mg2+ conditions) | ΔTm at 10 µM (KRAS(WT) [5]; read-out: Thermal stability ΔTm, 20 nM KRAS(WT), 10,000 nM inhibitor, second value (footnote g), the other of the with / without Mg2+ conditions)
23.7 °C | 32.5 °C | 5.2 °C | 5.5 °C | C=CC(=O)N1CCN(c2nc(OC[C@@H]3CCCN3C)nc3c(F)c(-c4nc(N)cc(C)c4C(F)(F)F)c(Cl)cc23)[C@@H](C)C1 [GDC-6036, divarasib] | 291 ± 23 nM | 32.9 ± 2.2 nM | 29.8 ± 2.35 nM | 12 ± 3 nM | 229 ± 59 nM | 15 ± 3.4 nM | 106 ± 6 nM | 5.9 ± 0.9 nM |  |  |  |  | 
 |  |  |  | C=CC(=O)N1CCN2C(=O)c3cc(F)c(-c4ccc(F)c5sc(N)c(C#N)c45)c(Cl)c3OCC[C@H]2C1 [LY3537982, olomorasib] | 343 ± 23 nM | 0.48 ± 0.042 nM | 0.16 ± 0.013 nM | 0.121 nM and 0.12 nM | 2.8 ± 0.8 nM | 0.345 nM and 0.35 nM | 1.6 ± 0.1 nM | 0.368 nM and 0.37 nM | 0.956 ± 0.3 nM | 20.5 °C | 30.4 °C | 5.1 °C | 4.9 °C
